We go through two compounds from ChEMBL document CHEMBL5042521, “A Structure-based Design Approach for Generating High Affinity BRD4 D1-Selective Chemical Probes” (J Med Chem, 2022).

Assay [1] addresses Bromodomain-containing protein 2 (Homo sapiens, UniProt P25440).
Description: Binding affinity to BRD2 D1 (unknown origin) assessed as dissociation constant by isothermal titration calorimetry
For assay [2], the target named is Bromodomain-containing protein 4 (Homo sapiens, UniProt O60885).
Description: Binding affinity to BRD4 D2 (unknown origin) assessed as dissociation constant by isothermal titration calorimetry

Each structure is given as a SMILES string.

Sequence of Bromodomain-containing protein 2 (P25440 whole entry): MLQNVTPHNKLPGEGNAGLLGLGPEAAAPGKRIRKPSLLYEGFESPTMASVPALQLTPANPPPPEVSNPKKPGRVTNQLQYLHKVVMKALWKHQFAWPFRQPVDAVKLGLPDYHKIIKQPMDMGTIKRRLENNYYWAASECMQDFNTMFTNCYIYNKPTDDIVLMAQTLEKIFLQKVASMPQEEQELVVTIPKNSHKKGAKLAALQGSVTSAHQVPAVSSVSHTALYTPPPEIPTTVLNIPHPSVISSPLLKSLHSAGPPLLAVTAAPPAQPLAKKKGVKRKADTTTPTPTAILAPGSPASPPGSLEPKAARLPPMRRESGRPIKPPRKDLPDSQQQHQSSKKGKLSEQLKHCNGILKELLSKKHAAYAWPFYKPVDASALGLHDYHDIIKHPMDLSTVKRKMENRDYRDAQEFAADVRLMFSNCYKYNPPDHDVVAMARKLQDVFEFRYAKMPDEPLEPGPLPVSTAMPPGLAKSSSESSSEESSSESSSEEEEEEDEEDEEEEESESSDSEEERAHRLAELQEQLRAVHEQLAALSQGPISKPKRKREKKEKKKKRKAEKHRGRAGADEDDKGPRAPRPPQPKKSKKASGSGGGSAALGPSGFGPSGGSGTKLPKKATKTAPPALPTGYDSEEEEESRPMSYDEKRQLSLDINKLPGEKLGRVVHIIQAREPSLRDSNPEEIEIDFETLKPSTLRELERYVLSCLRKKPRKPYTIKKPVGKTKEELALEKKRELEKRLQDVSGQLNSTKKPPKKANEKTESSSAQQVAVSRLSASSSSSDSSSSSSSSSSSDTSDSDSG

With `Cc1ccc(C(C)C)cc1Oc1nccc(-c2c(-c3ccc(C(F)(F)F)cc3)ncn2[C@H]2CCN(CCN(C)C)C2)n1`, the Kd entry in assay [1] and in assay [2] was “Not Active” each time.
As for `Cc1ccc(C(C)C)cc1Oc1nccc(-c2c(-c3ccc(C(F)(F)F)cc3)ncn2C2CCN(CCN(C)C)CC2)n1`, the Kd entry in assay [1] and in assay [2] was “Not Active” each time.
